Measured values: article PMC9542723, “Correlation between the drug concentration of polymyxin B and polymyxin B‐associated acute kidney injury in critically ill patients: A prospective study” (Pharmacology Research & Perspectives, 2022)
Positions of bridges follow the written chain, without caps; N, C: chain ends. Non-standard residues stand in square brackets, D forms with d. Residues, ends and D or L forms follow the SMILES beside them. *: point of attachment. X1 = CC[C@H](C)CCCCC(=O)*; Dab = NCC[C@H](N)C(=O)O

What was measured:
[1] = Steady-state serum concentrations of PB (PB1 + PB2) by UHPLC-MS/MS in critically ill patients; assay type: in vivo, human; settings: median (IQR); for Estimated AUC0–24: double the AUC0-12 by linear trapezoidal approximation from three samples
Method: (§1) Inclusion criteria included age ≥ 18 years and intravenous administration of PB for more than 3 days. Exclusion criteria included PB administration of a daily dose of 1.5–2.5 mg/kg <3 days, underlying chronic renal insufficiency or existing AKI, or renal replacement therapy already performed. The loading dose and maintenance dose of PB for each patient depended on the doctors' decisions at a daily dose of 1.5–2.5 mg/kg in evenly two doses. PB was administered as an intermittent infusion over approximately 1 h. Patients were divided into an AKI group and a non‐AKI group according to whether they developed new AKI after PB application according to Kidney Disease Improving Global Outcomes (KDIGO) diagnostic criteria.[20] An increase in serum creatinine (Scr) to 50% of the base value within 7 days or an increase in Scr of more than 26.5 μmol/L within 2 days or oliguria is diagnosed as AKI according to KDIGO's diagnostic criteria.
The estimated area under the plasma concentration–time curve from 0 to 24 h (AUC0–24) was the main PK variable for PB. From each patient, three blood samples were taken after at least […] doses of PB: blood sample A (C max) was collected within 30 min after the end of intravenous infusion of PB for the peak concentration, blood sample B (C 1/2) was a mid‐dose blood sample taken 50% of the way through a dosing interval, and blood sample C (C min) was a pre‐dose concentration taken at the end of a dosing interval (within 30 min of the next dose, see Figure 1). The serum was separated and stored at −70°C until assay.
The PB1 and PB2 serum concentrations were measured using a validated ultrahigh performance liquid chromatography–tandem mass spectrometry assay method.[21] The C max, C 1/2, and C min of steady‐state (after at least 5 doses) PB1 and PB2 components were determined according to the above method: Cmax=Cmax−PB1+Cmax−PB2, C1/2=C1/2−PB1+C1/2−PB2, Cmin=Cmin−PB1+Cmin−PB2,
The estimated area under the concentration–time curve from 0 to 12 h (AUC0–12) was calculated using the linear trapezoidal approximation[22] and the estimated AUC0–24 from 0 to 24 h (AUC0–24) was calculated as double the AUC0–12, [23] assuming a steady state (after at least 4–5 doses) when PB was administered every 12 h.

critically ill patients [2] = test: Occurrence of PB-associated acute kidney injury (KDIGO criteria) after intravenous PB; assay type: in vivo, human; settings: critically ill patients without basic renal insufficiency, 26/52, PB i.v. more than 3 days
Method: as §1

critically ill patients [3] = test: ROC curve analysis of PB PK parameters for predicting PB-AKI; design: species or system human; settings: best cut point by maximised index
Excerpt: Data are reported as categorical variables or numerical variables. Continuous normally distributed numerical variables are expressed as the means ± standard deviations, and continuous non‐normally distributed variables are expressed as the median (interquartile range). ANOVA test was used to compare the continuous normally distributed variables, Kruskal–Wallis rank sum test was used to compare the continuous non‐normally distributed variables, and Chi‐square test was used to compare the rates. The sensitivity and specificity of C 1/2, C min, and estimated AUC0–24 for the development of AKI were determined using ROC curve analysis. AKI occurrence as the outcome, to maximize the Jorden index to find the best entry point. Statistical significance was defined as p < .05. SPSS version 22.0 (SPSS Inc.) was used for all statistical calculations.

critically ill patients [4] = settings: previous clinical studies; cited from earlier work
Method: Estimated AUC0–24 is a predictor for PB‐AKI, and an estimated AUC0–24 ≥ 97.72 mg·h/L was identified as a significant breakpoint for PB‐AKI.

[5] = tested on: human renal tubular cells; settings: cited from earlier work
Excerpt: In recent years, PB‐AKI has been increasingly reported, which is a problem that should not be ignored.[13], [17], [28] Studies have shown that the main features of PB‐AKI include acute renal tubular injury and reduced Ccr.[25] In a mouse study, PB distribution in renal tissue after intravenous administration was detected using PB‐specific monoclonal antibody immunostaining and was mainly concentrated in the renal cortex, especially in the proximal tubu ...

Compound	Estimated AUC0–24 ([1]; AKI group (n = 26))	level at 6 h ([1]; human, iv, AKI group (n = 26), 50% of the way through a 12 h dosing interval, serum, sum PB1+PB2, UHPLC-MS/MS, read-out: C 1/2, middle serum concentration through a dosing interval) [ng/mL]	Cmax ([1]; human, iv, AKI group (n = 26), within 30 min after end of 1 h i.v. infusion, serum, sum PB1+PB2, UHPLC-MS/MS, read-out: C max, peak serum concentration of PB) [ng/mL]	Estimated AUC0–24 ([1]; non-AKI group (n = 26))	Estimated AUC0–24 ([1]; total patients (N = 52))	C max, peak serum concentration of PB ([1]; total patients (N = 52), within 30 min after end of 1 h i.v. infusion, daily dose 1.5-2.5 mg/kg in two doses, serum, sum PB1+PB2, UHPLC-MS/MS)	Incidence of AKI caused by intravenous PB (critically ill patients [2]) [%]	Cutoff value for estimated AUC0–24 predicting PB-AKI (critically ill patients [3]) [ng·h/mL]	Cutoff value for C 1/2 predicting PB-AKI (critically ill patients [3]; p = .003) [mg/L]	Estimated AUC0–24 that predicts nephrotoxicity of PB treatment (critically ill patients [4]) [ng·h/mL]	Concentration of polymyxin in renal tubular cells relative to extracellular [5] [times]
CC[C@H](C)CCCCC(=O)N[C@@H](CCN)C(=O)N[C@H](C(=O)N[C@@H](CCN)C(=O)N[C@H]1CCNC(=O)[C@H]([C@@H](C)O)NC(=O)[C@H](CCN)NC(=O)[C@H](CCN)NC(=O)[C@H](CC(C)C)NC(=O)[C@@H](Cc2ccccc2)NC(=O)[C@H](CCN)NC1=O)[C@@H](C)O [PB, polymyxin B] (X1-[Dab]T[Dab][Dab][Dab][dF]L[Dab][Dab]T; lactam 4-C)	102.37 (86.18–120.61) mg·h/L	3940	6800	85.5 (69.16–97.55) mg·h/L	92.07 (77.11–118.02) mg·h/L	6.69 (5.56–8.36) mg/L	50	97720	3.375	> 100000	
polymyxin											4760
